Measured values reported in ChEMBL document CHEMBL5728451, “Pyrimidinone derivatives as SHP2 antagonists” (2021).

Biological target: T1, Tyrosine-protein phosphatase non-receptor type 11 (Homo sapiens, UniProt Q06124)
T1 sequence (Q06124 whole entry): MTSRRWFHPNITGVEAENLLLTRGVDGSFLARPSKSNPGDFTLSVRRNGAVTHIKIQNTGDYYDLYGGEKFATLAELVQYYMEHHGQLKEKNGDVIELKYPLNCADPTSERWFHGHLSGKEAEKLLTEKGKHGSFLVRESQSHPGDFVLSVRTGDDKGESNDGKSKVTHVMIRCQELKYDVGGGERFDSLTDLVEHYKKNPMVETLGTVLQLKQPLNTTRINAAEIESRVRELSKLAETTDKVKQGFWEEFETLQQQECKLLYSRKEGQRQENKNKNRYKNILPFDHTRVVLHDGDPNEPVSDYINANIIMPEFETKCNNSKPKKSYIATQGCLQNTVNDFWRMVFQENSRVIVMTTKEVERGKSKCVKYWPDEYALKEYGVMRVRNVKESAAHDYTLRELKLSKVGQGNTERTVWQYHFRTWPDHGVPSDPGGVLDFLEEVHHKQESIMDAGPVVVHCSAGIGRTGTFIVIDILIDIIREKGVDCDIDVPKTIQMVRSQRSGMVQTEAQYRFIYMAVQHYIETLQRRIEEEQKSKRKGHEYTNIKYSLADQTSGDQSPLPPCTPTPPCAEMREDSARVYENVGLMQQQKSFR
Assay: Biochemical Assay: The inhibition of SHP2 by compounds of the invention was monitored using the surrogate substrate DiFMUP after protein activation by a peptide bearing two appropriately spaced phosphotyrosine. Full length SHP2 protein (Recombinant HumanSHP-2, E. coli derived Ser2Arg593, N-terminal 6His tag from R&D systems; […]) was incubated with activating peptide, IRSI_2pY (New England …

| IC50 [nM] | SMILES |
| --- | --- |
| 2100 | Cc1nc(N2CCC3(CCCC3CN)CC2)cc(=O)n1-c1cccc(Cl)c1Cl (configuration not stated) |
| 1500 | Cc1nc(N2CCC(C)(CN)CC2)cc(=O)n1-c1cccc(C(F)(F)F)c1Cl |
